Earlier results in PMC10140125 (Investigational New Drugs, 2023).

Test system: recurrent malignant gliomas
Parameters: method as in PMID 20458050, PMID 20200024
Details: phase II studies, recurrent malignant gliomas ref 4, 22

Cc1ccc(Nc2nccc(N(C)c3ccc4c(C)n(C)nc4c3)n2)cc1S(N)(=O)=O [pazopanib]
ORR: 5.9%

COc1cc2c(Oc3ccc4[nH]c(C)cc4c3F)ncnc2cc1OCCCN1CCCC1 [cediranib]
ORR: 56.7%
